Laboratory results published in patent EP0209707A2, “2-Aryl imidazoles, pharmaceutical compositions containing them and process for their preparation” (Dr. Karl Thomae GmbH, priority 1985, dated 1987).

Legend:
[1] = test system: Thrombozytenaggregation in plättchenreichem Plasma gesunder Versuchspersonen; experiment: Collagen-induced platelet aggregation (Born and Cross) in platelet-rich plasma; assay type: cell-based; conditions: 10 min, 50% change of optical density, plasma incubated 10 min with substance at 37°C
Description: Die Thrombozytenaggregation wird nach der Methode von BORN und CROSS (J. Physiol. 170, 397 (1964)) in plättchenreichem Plasma gesunder Versuchspersonen gemessen. Zur Gerinnungshemmung wird das Blut mit Natriumcitrat 3,14 % im Volumenverhältnis 1:10 versetzt.
Der Verlauf der Abnahme der optischen Dichte der Plättchensuspension wird nach Zugabe der aggregationsauslösenden Substanz photometrisch gemessen und registriert. Aus dem Neigungswinkel der Dichtekurve wird auf die Aggregationsgeschwindigkeit geschlossen. Der Punkt der Kurve, bei dem die größte Lichtdurchlässigkeit vorliegt, dient zur Berechnung der "optical density".
Die Collagen-Menge wird möglichst gering gewählt, aber doch so, daß sich eine irreversibel verlaufende Reaktionskurve ergibt. Verwendet wird das handelsübliche Collagen der Firma Hormonchemie, München.
Vor der Collagen-Zugabe wird das Plasma jeweils 10 Minuten mit der Substanz bei 37°C inkubiert.
Aus den erhaltenen Meßzahlen wird graphisch eine EC50 berechnet, die sich auf eine 50%ige Änderung der "optical density" im Sinne einer Aggregationshemmung bezieht.

[2] = test system: narkotisierten Katze; experiment: Blood pressure effect and positive inotropic effect in the anaesthetised cat; assay type: in vivo; conditions: arterial pressure in Aorta abdominalis
Description: 1. Bestimmung der Blutdruckwirkung und der positiv inotropen Wirkung an der narkotisierten Katze
Die Untersuchungen wurden an Katzen durchgeführte die mit Pentobarbital-Natrium (40 mg/kg i.p.) narkotisiert waren. Die Tiere atmeten spontan. Der arterielle Blutdruck wurde in der Aorta abdominalis mit einem Statham-Druckwandler (P 23 Dc) gemessen. Für die Erfassung der positiv inotropen Wirkung wurde mit einem Kathetertipmanometer (Millar PC-350 A) der Druck in der linken Herzkammer gemessen. Daraus wurde der Kontraktilitätsparameter dp/dtmax mittels eines Analogdifferenzierers gewonnen. Die zu untersuchenden Substanzen wurden in eine Vena femoralis injiziert. Als Lösungsmittel diente Polydiol 200. Jede Substanz wurde an mindestens 2 Katzen geprüft.
Die nachfolgende Tabelle enthält die gefundenen Mittelwerte: […]

[3] = second value of the printed pair (presumably diastolic), 1 mg/kg i.v.

| Structure (SMILES) | EC50 [1] [µM] | Blutdruck senkung in mm Hg [2, 3] [mm Hg] | Blutdruck senkung in mm Hg ([2]; second value of the printed pair (presumably diastolic), 0,6 mg/kg i.v.) [mm Hg] | Blutdruck senkung in mm Hg ([2]; second value of the printed pair (presumably diastolic), 2 mg/kg i.v.) [mm Hg] |
| --- | --- | --- | --- | --- |
| COc1cc(NS(C)(=O)=O)ccc1-c1nc2ccc(C#N)cc2[nH]1 [D, 5-Cyano-2-(4'-methansulfonylamino-2'-methoxy-phenyl)-benzimidazol] |  |  | -27 |  |
| COC(=O)Nc1ccc(-c2nc3cnccc3[nH]2)c(OC)c1 [E, 2-(2'-Methoxy-4'-methoxycarbonylamino-phenyl)-imidazo-[4,5-c]pyridin] |  |  |  | -12 |

Second part, led by results:

| EC50 [1] [µM] | Structure (SMILES) | Blutdruck senkung in mm Hg [2, 3] [mm Hg] | Blutdruck senkung in mm Hg ([2]; second value of the printed pair (presumably diastolic), 0,6 mg/kg i.v.) [mm Hg] | Blutdruck senkung in mm Hg ([2]; second value of the printed pair (presumably diastolic), 2 mg/kg i.v.) [mm Hg] |
| --- | --- | --- | --- | --- |
| 5.3 | COc1cc(S(C)(=O)=NC(C)=O)ccc1-c1nc2cc(C#N)ccc2[nH]1 (centres unmarked) [A, 2-[2'-Methoxy-4'-(N-acetyl-methylsulfoximino-phenyl)]-5-cyano-benzimidazol] | -20 |  |  |
| 8.2 | COc1cc([S+](C)[O-])ccc1-c1nc2ccc(C(C)=O)cc2[nH]1 (centres unmarked) [B, 2-(2'-Methoxy-4'-methylsulfinyl-phenyl)-5-acetyl-benzimidazol] | -28 |  |  |
| 8 | COc1cc(S(C)(=O)=O)ccc1-c1nc2ccc(C(C)=O)cc2[nH]1 [C, 2-(2'-Methoxy-4'-methylsulfonyl-phenyl)-5-acetyl-benzimidazol] | -24 |  |  |
